Assay results from PMC10459686, “Preclinical Evaluation of a New Series of Albumin-Binding ^177Lu-Labeled PSMA-Based Low-Molecular-Weight Radiotherapeutics” (Molecules, 2023).

What was measured:
PSMA+ PC3 PIP cells = experiment: Clonogenic survival assay; assay type: cell-based, human; conditions: 48 h treatment at 37 °C
Protocol: Cells (200–1000) were seeded in 60 mm culture dishes. Each radioligand (^177Lu-L1, ^177Lu-Alb-L2, ^177Lu-Alb-L5) was diluted in a prewarmed medium at different concentrations (0, 0.37, 1.85, 3.7, 18.5, 37, 185, and 370 kBq/mL) and incubated with the cells for 48 h, as we previously reported. The radiolabeled compound was replaced with fresh medium, and cells were incubated for 2 weeks or until colonies had at least 50 cells. The colonies were stained with crystal violet and counted, and the surviving fraction was normalized to the control plating efficiency, as previously described.

[1] = system: patients with metastatic castration-resistant prostate cancer; parameters: method as in PMID 34161051, PMID 34385339; conditions: treatment group of randomized patients; cited from earlier work
patients = system: patients; parameters: method as in PMID 32949253; conditions: than 177Lu-EB-PSMA-617 and 177Lu-PSMA-ALB-56; clinical studies; cited from earlier work

Row | Compound | Activity to reduce cell survival to 37% (A0) (PSMA+ PC3 PIP cells) [kBq/mL] | Concentration of radioactivity for complete cell killing (PSMA+ PC3 PIP cells) [kBq/mL] | Median overall survival [1] [months] | Kidney-absorbed dose, fold lower (patients)
1 | O=C(O)CCC(NC(=O)NC(CCCCN(Cc1ccc(Br)cc1)C(=O)CCCCNC(=O)CN1CCN(CC(=O)O)CCN(CC(=O)O)CCN(CC(=O)O)CC1)C(=O)O)C(=O)O (stereo not shown) [177Lu-L1, metal not drawn] | 18.5 | 370 |  | 
2 | O=C([O-])CN1CCN(CC(=O)[O-])CCN(CC(=O)NCC2CCC(C(=O)N[C@@H](Cc3ccc4ccccc4c3)C(=O)NCCCC[C@H](NC(=O)N[C@@H](CCC(=O)O)C(=O)O)C(=O)O)CC2)CCN(CC(=O)[O-])CC1.[177Lu+3] (stereo partly shown) [177Lu-PSMA-617] |  |  | 15.3 | ~ 4 fold
